According to patent US20220220125A1, “FUSED ISOINDOLIN-1-ONE DERIVATIVES USEFUL AS GRK2 INHIBITORS” (Janssen Pharmaceutica NV, priority 2019, published 2022):

Molecular target: T1, GRK2 (Homo sapiens, UniProt P25098)
T1 sequence (P25098 1-689): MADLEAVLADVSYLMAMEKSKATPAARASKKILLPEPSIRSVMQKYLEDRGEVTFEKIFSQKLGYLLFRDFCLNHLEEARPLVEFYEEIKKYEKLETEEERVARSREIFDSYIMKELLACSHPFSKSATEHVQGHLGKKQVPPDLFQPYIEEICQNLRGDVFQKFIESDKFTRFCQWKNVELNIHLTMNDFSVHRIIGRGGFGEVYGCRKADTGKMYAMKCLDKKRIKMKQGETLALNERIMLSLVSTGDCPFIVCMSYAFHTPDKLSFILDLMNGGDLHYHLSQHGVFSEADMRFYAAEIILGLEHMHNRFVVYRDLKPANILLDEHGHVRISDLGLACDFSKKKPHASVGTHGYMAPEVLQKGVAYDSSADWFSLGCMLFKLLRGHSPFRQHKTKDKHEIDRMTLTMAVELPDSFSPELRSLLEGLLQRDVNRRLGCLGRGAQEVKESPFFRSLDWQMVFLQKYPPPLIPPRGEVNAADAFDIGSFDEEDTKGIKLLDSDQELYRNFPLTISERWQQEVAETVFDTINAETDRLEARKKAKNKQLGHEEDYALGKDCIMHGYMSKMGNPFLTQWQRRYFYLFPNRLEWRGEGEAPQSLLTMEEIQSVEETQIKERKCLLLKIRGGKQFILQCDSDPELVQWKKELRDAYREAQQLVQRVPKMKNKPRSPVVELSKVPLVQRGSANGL
Experiment: hGRK2 LANCE Ultra in vitro kinase assay
Format: biochemical
Settings: 10 nM GRK2; ATP 30 or 600 μM (not stated which); read-out: GRK2 Lancer IC50
Procedure: hGRK2 LANCER In Vitro Assay
This assay is sensitive and requires as low as 10 nM enzyme, in a total volume of 10 μL. In addition, the ATP concentration can be varied over a broad range, without interfering with the assay or changing the assay condition. […] Testing inhibitors routinely at both high and low ATP concentrations also enables identification of potential non-ATP competitive inhibitors.
This assay measures IC50 values of test compounds (inhibitors) by monitoring GRK2 enzymatic activity at varying inhibitor concentrations.
Test compounds were dissolved in DMSO at 1 mM and were 3-fold serial diluted. The compound DMSO solutions were then added (100 nL) into a plate well using an acoustic dispenser. To each well was then added 20 nM GRK2 (5 μL) in assay buffer (20 mM HEPES, pH 7.5, 10 mM MgCl2, 0.001% Tween-20). The plate was sealed and centrifuged at 1000 rpm for 1 min. The plate and wells containing a mixture of GRK2 and test compound were incubated at ambient temperature for 30 min (prior to initializing the enzymatic reaction).
Enzyme reactions were initiated by the addition of 4.9 μL Substrates/Eu-Ab mix to each well. […] Final concentrations of reagents in the assays were as follows: 20 mM HEPES, pH 7.5; 10 mM MgCl2; 0.001% Tween-20 (w/v); 30 or 600 μM ATP; 200 nM ULight-peptide; 4 nM Eu-Ab; 10 nM GRK2; and 1% DMSO.
The plates were sealed and centrifuged at 1000 rpm for 1 min. For reactions at low ATP concentration (30 μM), reaction mixtures were incubated at ambient temperature for 120 min. For reactions at high ATP concentration (600 μM), reaction mixtures were incubated at ambient temperature for 60 min.
The enzyme reactions were quenched by addition of 10 μL of 12 mM EDTA in 1× LANCE detection solution to each well. The plates were then incubated at ambient temperature for 30 min. Time-resolved fluorescence signal of reactions were read on an EnVision or PHERAstar plate reader with the following parameters: Excitation wavelength=337 nm, emission wavelength (donor)=620 nm; emission wavelength (acceptor)=665 nm.
The raw HTRF data were converted to % active as follows:
% active=(sample−NC)/(PC−NC)*100
where NC is the mean of negative control (reactions without GRK2), and PC is the mean of positive control (reactions with GRK2 but without inhibitor). IC50 values were determined from a 4-parameter fit, using the following equation:
Y=Bottom+(Top−Bottom)/(1+10^((Log IC50-X)*Hill slope)),
where X=log10 of the compound concentration.

Row | SMILES | IC50
1 | O=C1c2cc(-c3cn[nH]c3)ccc2C2CCCCC(c3cccc(O)c3)N12 (single isomer, unassigned) [Compound 2, (7S*)-7-(3-hydroxyphenyl)-3-(1H-pyrazol-4-yl)-7,8,9,10,11,11a-hexahydro-5H-azepino[2,1-a]isoindol-5-one] | 0.008 µM
2 | COc1cccc(C2CCCCC3c4ccc(-c5cn[nH]c5)cc4C(=O)N23)c1 (single isomer, unassigned) [Compound 3, (7S*)-7-(3-methoxyphenyl)-3-(1H-pyrazol-4-yl)-7,8,9,10,11,11a-hexahydro-5H-azepino[2,1-a]isoindol-5-one] | 0.009 µM
3 | COc1cccc(C2CCCCC3c4ccc(-c5cn[nH]c5)cc4C(=O)N23)c1 (single isomer, unassigned) [Compound 5] | 0.011 µM
4 | COc1cccc(C2CCCCC3c4ccc(-c5cn[nH]c5)cc4C(=O)N23)c1 (single isomer, unassigned) [Compound 1, (7R*)-7-(3-methoxyphenyl)-3-(1H-pyrazol-4-yl)-7,8,9,10,11,11a-hexahydro-5H-azepino[2,1-a]isoindol-5-one] | < 0.005 µM
5 | COc1cccc([C@H]2COC/C=C\CC3c4ccc(-c5cn[nH]c5)cc4C(=O)N32)c1 (mixture of isomers) [Compound 8] | 0.166 µM
6 | O=C1c2cc(-c3cn[nH]c3)ccc2C2CCCCC(c3cccc(O)c3)N12 (single isomer, unassigned) [Compound 6, (7R*)-7-(3-hydroxyphenyl)-3-(1H-pyrazol-4-yl)-7,8,9,10,11,11a-hexahydro-5H-azepino[2,1-a]isoindol-5-one] | 0.012 µM
7 | COc1cccc([C@H]2COCCCCC3c4ccc(-c5cn[nH]c5)cc4C(=O)N32)c1 (mixture of isomers) [Compound 9] | 1.4 µM
8 | COc1cccc(N2CC=CCC3c4ccc(-c5cn[nH]c5)cc4C(=O)N32)c1 (racemic) [Compound 16, 1-(3-methoxyphenyl)-8-(1H-pyrazol-4-yl)-1,2,5,5a-tetrahydro-10H-[1,2]diazepino[7,1-a]isoindol-10-one] | 0.008 µM
9 | COc1cccc(N2CCCCC3c4ccc(-c5cn[nH]c5)cc4C(=O)N32)c1 (racemic) [Compound 15, (Rac)-1-(3-methoxyphenyl)-8-(1H-pyrazol-4-yl)-1,2,3,4,5,5a-hexahydro-10H-[1,2]diazepino[7,1-a]isoindol-10-one] | 0.006 µM
10 | COc1cccc([C@H]2COC/C=C\CC3c4ccc(-c5cn[nH]c5)nc4C(=O)N32)c1 (mixture of isomers) [Compound 14] | 1.01 µM
11 | COc1cc(F)cc(C2CCCCC3c4ccc(-c5cn[nH]c5)cc4C(=O)N23)c1 (stereo not drawn) [Compound 4] | 0.009 µM
12 | COc1cc(F)cc(C2CCCCC3c4ccc(-c5cn[nH]c5)cc4C(=O)N23)c1 (stereo not drawn) [Compound 7] | 0.024 µM
